Assay type in all cases: cell-based
Assay [1] concerns the target T1, hTRPV1 (Homo sapiens, UniProt Q8NER1).
T1 construct: gene TRPV1
Kind of assay: whole-cell patch-clamp, capsaicin-evoked currents in HEK293 cells expressing hTRPV1.

The target in assay [2] is T2, hTRPA1 (Homo sapiens, UniProt O75762).
T2 construct: gene TRPA1
Kind of assay: whole-cell patch-clamp, AITC-evoked currents in HEK293 cells; % inhibition at […].

Assay [3] deals with T3, rTRPV1 (Rattus norvegicus, UniProt O35433).
T3 construct: gene Trpv1
T3 sequence (O35433 whole entry): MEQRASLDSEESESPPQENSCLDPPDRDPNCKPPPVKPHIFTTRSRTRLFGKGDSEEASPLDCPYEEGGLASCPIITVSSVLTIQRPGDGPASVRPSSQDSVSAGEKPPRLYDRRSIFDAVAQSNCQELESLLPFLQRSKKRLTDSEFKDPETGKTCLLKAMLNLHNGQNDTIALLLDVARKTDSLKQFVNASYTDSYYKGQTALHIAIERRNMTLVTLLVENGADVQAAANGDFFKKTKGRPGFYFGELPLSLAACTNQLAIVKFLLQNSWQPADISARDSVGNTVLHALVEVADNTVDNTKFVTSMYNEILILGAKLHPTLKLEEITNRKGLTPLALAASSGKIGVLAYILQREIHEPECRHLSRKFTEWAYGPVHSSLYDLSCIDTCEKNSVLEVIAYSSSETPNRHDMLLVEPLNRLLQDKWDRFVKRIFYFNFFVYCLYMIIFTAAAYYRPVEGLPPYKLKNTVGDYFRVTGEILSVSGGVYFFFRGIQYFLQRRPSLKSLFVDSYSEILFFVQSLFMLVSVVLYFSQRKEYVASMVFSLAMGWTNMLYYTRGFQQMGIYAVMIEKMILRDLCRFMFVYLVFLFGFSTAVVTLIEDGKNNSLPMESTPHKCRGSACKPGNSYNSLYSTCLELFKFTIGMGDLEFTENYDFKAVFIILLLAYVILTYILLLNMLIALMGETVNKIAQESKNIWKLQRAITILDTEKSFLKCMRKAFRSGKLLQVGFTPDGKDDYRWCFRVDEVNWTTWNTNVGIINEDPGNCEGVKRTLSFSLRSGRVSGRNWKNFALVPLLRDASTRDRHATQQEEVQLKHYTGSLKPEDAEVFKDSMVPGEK
In words: Ca2+ microfluorography.

Assay [4] concerns the target T4, hTRPM8 (Homo sapiens, UniProt Q7Z2W7).
T4 construct: gene TRPM8
In words: whole-cell patch-clamp, menthol-evoked currents in HEK293 cells; % block at […].

The target of assay [5] is T2, hTRPA1. Kind of assay: whole-cell patch-clamp, AITC-evoked currents in HEK293 cells, […].

T2 sequence (O75762 whole entry): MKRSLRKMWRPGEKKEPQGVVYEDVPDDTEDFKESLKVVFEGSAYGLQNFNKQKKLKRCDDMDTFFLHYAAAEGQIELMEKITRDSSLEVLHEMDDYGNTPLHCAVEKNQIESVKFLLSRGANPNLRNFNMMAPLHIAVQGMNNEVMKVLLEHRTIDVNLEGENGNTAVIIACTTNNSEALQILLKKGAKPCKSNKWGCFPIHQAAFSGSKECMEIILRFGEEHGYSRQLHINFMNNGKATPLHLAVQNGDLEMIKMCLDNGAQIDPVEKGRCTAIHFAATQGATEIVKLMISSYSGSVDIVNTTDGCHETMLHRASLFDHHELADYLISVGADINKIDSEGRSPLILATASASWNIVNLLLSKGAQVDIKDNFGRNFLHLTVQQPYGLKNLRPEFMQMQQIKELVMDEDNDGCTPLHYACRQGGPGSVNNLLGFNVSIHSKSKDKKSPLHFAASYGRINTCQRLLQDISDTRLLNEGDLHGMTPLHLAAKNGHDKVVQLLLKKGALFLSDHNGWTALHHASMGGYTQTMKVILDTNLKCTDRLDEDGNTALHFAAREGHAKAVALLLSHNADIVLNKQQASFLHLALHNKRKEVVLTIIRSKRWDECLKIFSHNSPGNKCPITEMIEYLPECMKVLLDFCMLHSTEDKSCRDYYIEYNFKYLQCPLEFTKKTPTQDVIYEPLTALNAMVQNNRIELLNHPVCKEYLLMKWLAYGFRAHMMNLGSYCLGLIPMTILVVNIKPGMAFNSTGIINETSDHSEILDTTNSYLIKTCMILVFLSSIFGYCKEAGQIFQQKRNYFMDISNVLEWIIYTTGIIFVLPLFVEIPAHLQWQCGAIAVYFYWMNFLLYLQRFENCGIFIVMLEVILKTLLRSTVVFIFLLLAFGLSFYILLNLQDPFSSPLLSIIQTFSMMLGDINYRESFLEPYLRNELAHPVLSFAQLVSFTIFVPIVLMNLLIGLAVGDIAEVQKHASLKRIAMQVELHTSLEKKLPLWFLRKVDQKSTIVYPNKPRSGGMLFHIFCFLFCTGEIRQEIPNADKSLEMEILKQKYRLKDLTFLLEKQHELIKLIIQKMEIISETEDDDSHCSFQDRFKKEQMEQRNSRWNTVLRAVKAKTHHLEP
T4 sequence (Q7Z2W7 whole entry): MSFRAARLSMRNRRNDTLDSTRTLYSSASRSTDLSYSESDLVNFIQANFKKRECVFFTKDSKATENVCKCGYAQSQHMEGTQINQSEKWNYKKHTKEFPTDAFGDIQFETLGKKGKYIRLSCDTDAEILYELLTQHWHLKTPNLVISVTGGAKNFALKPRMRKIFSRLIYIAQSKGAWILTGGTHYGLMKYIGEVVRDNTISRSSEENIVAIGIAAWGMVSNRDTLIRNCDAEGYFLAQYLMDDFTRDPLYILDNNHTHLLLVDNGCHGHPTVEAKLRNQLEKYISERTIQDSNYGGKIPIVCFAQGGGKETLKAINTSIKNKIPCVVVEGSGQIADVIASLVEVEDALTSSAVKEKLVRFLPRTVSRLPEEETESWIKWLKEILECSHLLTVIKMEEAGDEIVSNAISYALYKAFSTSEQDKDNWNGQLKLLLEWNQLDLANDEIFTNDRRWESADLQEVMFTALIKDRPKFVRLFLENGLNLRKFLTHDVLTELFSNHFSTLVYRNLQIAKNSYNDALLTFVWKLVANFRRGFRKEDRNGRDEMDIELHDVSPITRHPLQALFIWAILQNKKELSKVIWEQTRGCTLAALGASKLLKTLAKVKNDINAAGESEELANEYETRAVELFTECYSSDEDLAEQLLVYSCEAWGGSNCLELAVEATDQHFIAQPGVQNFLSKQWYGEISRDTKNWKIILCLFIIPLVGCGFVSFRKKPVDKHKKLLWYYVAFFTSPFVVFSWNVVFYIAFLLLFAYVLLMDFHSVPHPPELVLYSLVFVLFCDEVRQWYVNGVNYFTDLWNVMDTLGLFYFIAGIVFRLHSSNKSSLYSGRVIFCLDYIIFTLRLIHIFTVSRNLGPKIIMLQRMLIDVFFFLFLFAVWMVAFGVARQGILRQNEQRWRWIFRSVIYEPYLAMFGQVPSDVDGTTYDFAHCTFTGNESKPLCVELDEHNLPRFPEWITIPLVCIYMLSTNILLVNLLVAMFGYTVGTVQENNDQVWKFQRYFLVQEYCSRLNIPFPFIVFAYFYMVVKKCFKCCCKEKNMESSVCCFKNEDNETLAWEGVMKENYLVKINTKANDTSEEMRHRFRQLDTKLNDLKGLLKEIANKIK
T1 sequence (Q8NER1 whole entry): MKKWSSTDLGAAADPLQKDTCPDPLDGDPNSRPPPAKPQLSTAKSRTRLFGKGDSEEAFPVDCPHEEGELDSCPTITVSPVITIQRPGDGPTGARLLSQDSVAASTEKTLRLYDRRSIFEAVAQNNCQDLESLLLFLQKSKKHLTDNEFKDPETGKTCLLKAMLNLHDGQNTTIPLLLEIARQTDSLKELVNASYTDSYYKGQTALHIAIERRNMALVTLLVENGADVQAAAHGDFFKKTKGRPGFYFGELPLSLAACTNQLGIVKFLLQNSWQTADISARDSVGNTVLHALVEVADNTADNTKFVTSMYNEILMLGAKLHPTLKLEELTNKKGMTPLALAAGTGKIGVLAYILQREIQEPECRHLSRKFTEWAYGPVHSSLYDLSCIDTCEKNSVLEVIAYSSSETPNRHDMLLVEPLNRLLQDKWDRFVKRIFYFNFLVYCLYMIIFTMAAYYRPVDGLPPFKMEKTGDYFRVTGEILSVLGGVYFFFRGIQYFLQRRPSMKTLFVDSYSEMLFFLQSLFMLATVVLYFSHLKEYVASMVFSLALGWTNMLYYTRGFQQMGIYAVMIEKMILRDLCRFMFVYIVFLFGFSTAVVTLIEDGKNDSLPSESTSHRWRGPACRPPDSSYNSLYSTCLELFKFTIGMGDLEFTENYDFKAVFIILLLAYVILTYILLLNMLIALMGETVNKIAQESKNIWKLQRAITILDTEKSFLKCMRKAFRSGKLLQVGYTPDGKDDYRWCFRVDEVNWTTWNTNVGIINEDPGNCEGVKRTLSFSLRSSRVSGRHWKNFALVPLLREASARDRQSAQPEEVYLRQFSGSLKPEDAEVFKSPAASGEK

On to `CCCCCCCCCCCC(=O)OCC(=O)NCc1cc(OC)c(O)cc1I` [AG1529, 2-((4-hydroxy-2-iodo-5-methoxybenzyl)amino)-2-oxoethyl dodecanoate], for which the results for the IC50 in assay [1] and in assay [3] were 0.9 ± 0.5 µM and 0.9 ± 0.2 µM, respectively. For the same compound, the inhibition at 10 µM in assay [2] is ~40%. For the same compound, the “%” value in assay [4] was ~ 40%.
`CC(C)c1ccc(NC(=O)Cn2cnc3c2c(=O)n(C)c(=O)n3C)cc1` [HC030031, 1,2,3,6-Tetrahydro-1,3-dimethyl-N-[4-(1-methylethyl)phenyl]-2,6-dioxo-7H-purine-7-acetamide]: the “whole-cell patch-clamp, AITC-evoked currents in HEK293 cells, 5 μM” value in assay [5] is “a reference TRPA1 antagonist, completely abrogated AITC-evoked ionic currents”.

The values above are taken from publication PMC7794549, “A capsaicinoid-based soft drug, AG1529, for attenuating TRPV1-mediated histaminergic and inflammatory sensory neuron excitability” (Scientific Reports, 2021).
